Assay results reported in ChEMBL document CHEMBL3822442, “Synthesis and Pharmacological Characterization of Novel Glucagon-like Peptide-2 (GLP-2) Analogues with Low Systemic Clearance” (J Med Chem, 2016).
Activity calls are given as the source filed them. No cut-off for these calls is given here.

Key:
Format in all cases: cell-based
[1] = target: T1, Glucagon-like peptide 2 receptor (Homo sapiens, UniProt O95838); experiment: Agonist activity at human GLP2R expressed in HEK293 cells after 5 hrs by luciferase reporter gene assay
T1 sequence (O95838 whole entry): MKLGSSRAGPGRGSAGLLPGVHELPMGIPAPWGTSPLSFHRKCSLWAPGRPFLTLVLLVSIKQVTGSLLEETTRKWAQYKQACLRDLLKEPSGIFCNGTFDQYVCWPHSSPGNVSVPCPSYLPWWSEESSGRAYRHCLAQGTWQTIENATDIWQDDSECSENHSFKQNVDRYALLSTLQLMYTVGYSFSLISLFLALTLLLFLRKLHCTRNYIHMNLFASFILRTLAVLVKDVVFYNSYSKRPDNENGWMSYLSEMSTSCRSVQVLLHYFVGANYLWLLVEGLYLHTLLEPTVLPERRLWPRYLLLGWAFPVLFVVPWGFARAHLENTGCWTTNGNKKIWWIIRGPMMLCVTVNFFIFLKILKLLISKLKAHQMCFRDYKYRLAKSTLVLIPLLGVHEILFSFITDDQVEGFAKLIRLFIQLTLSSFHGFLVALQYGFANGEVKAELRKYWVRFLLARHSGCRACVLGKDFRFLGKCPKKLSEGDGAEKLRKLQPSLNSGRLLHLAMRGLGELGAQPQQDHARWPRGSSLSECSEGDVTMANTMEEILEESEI

[2] = target: Glucagon-like peptide 1 receptor (Homo sapiens, UniProt P43220); experiment: Agonist activity at human GLP1R expressed in HEK293 cells after 5 hrs by luciferase reporter gene assay
Sequence of Glucagon-like peptide 1 receptor (P43220 whole entry): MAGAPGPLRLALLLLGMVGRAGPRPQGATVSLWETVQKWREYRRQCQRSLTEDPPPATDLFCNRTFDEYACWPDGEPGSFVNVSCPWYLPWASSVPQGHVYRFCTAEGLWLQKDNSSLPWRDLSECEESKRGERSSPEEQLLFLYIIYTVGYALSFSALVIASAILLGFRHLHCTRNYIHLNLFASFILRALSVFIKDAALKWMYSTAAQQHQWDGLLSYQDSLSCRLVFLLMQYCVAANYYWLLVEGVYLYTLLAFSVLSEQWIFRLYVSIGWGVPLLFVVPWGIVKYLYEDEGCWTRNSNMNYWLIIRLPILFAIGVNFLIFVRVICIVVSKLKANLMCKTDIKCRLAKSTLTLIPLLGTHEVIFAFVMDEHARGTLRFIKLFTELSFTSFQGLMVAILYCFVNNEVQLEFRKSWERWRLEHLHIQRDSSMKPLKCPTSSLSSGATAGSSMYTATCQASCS

[3] = target: T2, Glucagon-like peptide 2 receptor (Homo sapiens) (UniProt O95838); experiment: Potency index, ratio of compound EC50 to compound 2 EC50 for human GLP2R expressed in HEK293 cells
T2 sequence (whole entry): T1 sequence (O95838 whole entry)

[4] = target: Glucagon receptor (Homo sapiens) (UniProt P47871); experiment: Agonist activity at human GCGR expressed in HEK293 cells after 5 hrs by luciferase reporter gene assay
Sequence of Glucagon receptor (Homo sapiens) (P47871 whole entry): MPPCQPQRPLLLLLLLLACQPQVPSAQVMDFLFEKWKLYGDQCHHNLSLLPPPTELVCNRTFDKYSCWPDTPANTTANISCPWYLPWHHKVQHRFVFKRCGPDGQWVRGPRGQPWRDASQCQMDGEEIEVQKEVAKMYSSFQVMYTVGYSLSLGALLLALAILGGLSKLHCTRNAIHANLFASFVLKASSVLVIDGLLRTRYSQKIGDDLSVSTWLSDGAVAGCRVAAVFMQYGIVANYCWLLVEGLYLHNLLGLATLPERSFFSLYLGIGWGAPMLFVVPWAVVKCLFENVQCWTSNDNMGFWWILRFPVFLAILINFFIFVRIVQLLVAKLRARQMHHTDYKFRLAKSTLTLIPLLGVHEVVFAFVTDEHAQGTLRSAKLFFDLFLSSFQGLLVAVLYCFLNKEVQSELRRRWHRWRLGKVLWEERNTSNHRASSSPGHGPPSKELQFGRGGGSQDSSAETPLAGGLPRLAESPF

HEK293 = experiment: Selectivity ratio of EC50 for human GLP1R expressed in HEK293 cells to EC50 for human GLP2R expressed in HEK293

Row | Structure (SMILES) | EC50 [1] [nM] | EC50 [2] [nM] | Ratio EC50 [3] | Activity [4] | Ratio EC50 (HEK293)
1 | CCCCC(NC(=O)[C@H](CCC(=O)O)NC(=O)[C@H](CC(=O)O)NC(=O)[C@@H](CO)NC(=O)[C@H](Cc1ccccc1)NC(=O)[C@H](CO)NC(=O)CNC(=O)[C@H](CC(=O)O)NC(=O)CNC(=O)[C@@H](N)Cc1cnc[nH]1)C(=O)N[C@@H](CC(N)=O)C(=O)N[C@H](C(=O)N[C@H](C(=O)N[C@@H](CC(C)C)C(=O)N[C@@H](CC(=O)O)C(=O)N[C@@H](CC(N)=O)C(=O)N[C@@H](CC(C)C)C(=O)N[C@@H](C)C(=O)N[C@@H](C)C(=O)N[C@@H](CCCNC(=N)N)C(=O)N[C@@H](CC(=O)O)C(=O)N[C@@H](Cc1ccccc1)C(=O)N[C@H](C(=O)N[C@@H](CC(N)=O)C(=O)N[C@@H](Cc1c[nH]c2ccccc12)C(=O)N[C@@H](CC(C)C)C(=O)N[C@H](C(=O)N[C@@H](CCC(N)=O)C(=O)N[C@H](C(=O)N[C@@H](CCCCN)C(N)=O)[C@@H](C)O)[C@@H](C)CC)[C@@H](C)CC)[C@@H](C)CC)[C@@H](C)O (stereo not given in full) | 0.19 | > 1000 | 0.86 | inactive | > 5200
2 | CCCCC(NC(=O)[C@H](CCC(=O)O)NC(=O)[C@H](CC(=O)O)NC(=O)[C@H](CO)NC(=O)[C@H](Cc1ccccc1)NC(=O)[C@H](CO)NC(=O)CNC(=O)[C@H](CC(=O)O)NC(=O)CNC(=O)[C@@H](N)Cc1cnc[nH]1)C(=O)N[C@@H](CC(N)=O)C(=O)N[C@H](C(=O)N[C@@H](C(=O)N[C@@H](CC(C)C)C(=O)N[C@@H](CC(=O)O)C(=O)N[C@@H](CC(N)=O)C(=O)N[C@@H](CC(C)C)C(=O)N[C@@H](C)C(=O)N[C@@H](C)C(=O)N[C@@H](CCCNC(=N)N)C(=O)N[C@@H](CC(=O)O)C(=O)N[C@@H](Cc1ccccc1)C(=O)N[C@H](C(=O)N[C@@H](CC(N)=O)C(=O)N[C@@H](Cc1c[nH]c2ccccc12)C(=O)N[C@@H](CC(C)C)C(=O)N[C@H](C(=O)N[C@@H](CCC(N)=O)C(=O)N[C@H](C(=O)N[C@@H](CCCCN)C(N)=O)[C@@H](C)O)[C@@H](C)CC)[C@@H](C)CC)[C@H](C)CC)[C@@H](C)O (stereo not given in full) | 0.35 | > 1000 | 1.6 | inactive | > 2800
3 | CCCCC(NC(=O)[C@H](CCC(=O)O)NC(=O)[C@@H](CC(=O)O)NC(=O)[C@H](CO)NC(=O)[C@H](Cc1ccccc1)NC(=O)[C@H](CO)NC(=O)CNC(=O)[C@H](CC(=O)O)NC(=O)CNC(=O)[C@@H](N)Cc1cnc[nH]1)C(=O)N[C@@H](CC(N)=O)C(=O)N[C@H](C(=O)N[C@H](C(=O)N[C@@H](CC(C)C)C(=O)N[C@@H](CC(=O)O)C(=O)N[C@@H](CC(N)=O)C(=O)N[C@@H](CC(C)C)C(=O)N[C@@H](C)C(=O)N[C@@H](C)C(=O)N[C@@H](CCCNC(=N)N)C(=O)N[C@@H](CC(=O)O)C(=O)N[C@@H](Cc1ccccc1)C(=O)N[C@H](C(=O)N[C@@H](CC(N)=O)C(=O)N[C@@H](Cc1c[nH]c2ccccc12)C(=O)N[C@@H](CC(C)C)C(=O)N[C@H](C(=O)N[C@@H](CCC(N)=O)C(=O)N[C@H](C(=O)N[C@@H](CCCCN)C(N)=O)[C@@H](C)O)[C@@H](C)CC)[C@@H](C)CC)[C@@H](C)CC)[C@@H](C)O (stereo not given in full) | 16 | > 1000 | 73 | inactive | > 62
